The structures appear in SMILES notation.

T1 sequence (P43220 24-463): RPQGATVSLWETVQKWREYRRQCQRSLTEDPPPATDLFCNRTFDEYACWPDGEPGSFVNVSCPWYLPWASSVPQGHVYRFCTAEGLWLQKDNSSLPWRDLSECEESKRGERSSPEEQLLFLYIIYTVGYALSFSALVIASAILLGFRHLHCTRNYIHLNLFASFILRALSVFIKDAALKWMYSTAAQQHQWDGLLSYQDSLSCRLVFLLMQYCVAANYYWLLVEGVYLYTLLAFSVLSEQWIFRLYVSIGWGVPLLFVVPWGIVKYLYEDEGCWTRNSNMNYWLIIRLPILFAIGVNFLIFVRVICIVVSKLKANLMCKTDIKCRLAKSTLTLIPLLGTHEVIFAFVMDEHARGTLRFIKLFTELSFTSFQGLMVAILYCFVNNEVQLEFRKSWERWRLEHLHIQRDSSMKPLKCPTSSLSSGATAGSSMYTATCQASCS
T1 sequence (P01275 100-127 partner limits assumed): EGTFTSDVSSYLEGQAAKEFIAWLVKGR

This experiment addresses T1, GLP-1R (Homo sapiens, UniProt P43220).
T1 construct: host or cells: CRE-bla CHO-K1
Nature of the experiment: EC20 GLP-1(9-36) PAM cAMP assay: dose response of compound in the presence of fixed concentration of GLP-1(9-36). It is filed as cell-based. To be noted: GLP-1R CRE-bla CHO-K1 cells, compound dose response in presence of fixed concentration of GLP-1(9-36). The protocol: EC20 GLP-1(9-36) PAM cAMP Assay: Dose Response of Compound in the Presence of Fixed Concentration of GLP-1 (9-36).
GLP-1R CRE-bla CHO-K1 cells cultured in growth medium (DMEM-High glucose, 10% dialyzed FBS, 0.1 mM NEAA, 25 mM Hepes, 100 U/mL penicillin/100 μg/mL streptomycin, 5 μg/mL Blasticidin, 600 μg/mL Hygromycin) were tryspsinized and plated in suspension into 384 well white flat bottom plates at 5000 cells/well in 12 μL assay buffer (Hanks Balanced Salt solution, 10 mM Hepes, 0.1% BSA, pH 7.4). A 5× compound dose response curve (12-point) was generated in assay buffer containing 1.5 mM IBMX, 12.5% DMSO. GLP-1(9-36) was diluted to 4.2 μM in assay buffer containing 1.5 mM IBMX and 12.5% DMSO. The 5× compound dose response was added (3 μL), followed by 0.5 μL of GLP-1(9-36) and cells were incubated for 30 min at 37° C. Direct detection of cAMP was carried out using DiscoveRx HitHunter cAMP kit according to manufacturer's instructions and luminescence was read using a SpectraMax M5 plate reader. Luminescence was converted to total cAMP using a cAMP standard curve and data was analyzed by non-linear regression to determine the EC50 and Emax.
GLP-1(7-36): […]-NH2. GLP-1(9-36): […]-NH2. GLP-1(7-36) was purchased from GenScript. GLP-1(9-36) was purchased from Biopeptide Co., Inc.
For `CCCCCCCOc1ccc(-c2cnc(-c3ccc(C[C@H](NC(=O)c4ccc(-c5ccccc5)cc4)C(=O)O)cc3)nc2)cc1` [Compound 91], the EC50 was in the range of 800 to 2500 nM.
Under `CCCCCCCOc1ccc(-c2cnc(-c3ccc(C[C@H](NC(=O)c4cccc(N5CCCC5)c4)C(=O)O)cc3)nc2)cc1` [Compound 92] stands 800 to 2500 nM; under `CCCCCCCOc1ccc(-c2cnc(-c3ccc(C[C@H](NC(=O)c4ccc(C(F)(F)F)cc4)C(=O)O)cc3)nc2)cc1` [Compound 93], 5000 to 10000 nM.
Under `CCCCCCCOc1ccc(-c2cnc(-c3ccc(C[C@H](NC(=O)c4ccc(C(C)C)cc4)C(=O)O)cc3)nc2)cc1` [Compound 94, (S)-3-(4-(5-(4-(heptyloxy)phenyl)pyrimidin-2-yl)phenyl)-2-(4-isopropylbenzamido)propanoic acid] stands 800 to 2500 nM; under `CCCCCCCOc1ccc(-c2cnc(-c3ccc(C[C@H](NC(=O)c4cccc(C(C)C)c4)C(=O)O)cc3)nc2)cc1` [Compound 95], 800 to 2500 nM.
Under `CCCCCCCOc1ccc(-c2cnc(-c3ccc(C[C@H](NC(=O)c4ccc(N(C)C)cc4)C(=O)O)cc3)nc2)cc1` [Compound 96] stands 2500 to 5000 nM; under `CCCCCCCOc1ccc(-c2cnc(-c3ccc(C[C@H](NC(=O)c4ccc(OC(C)C)cc4)C(=O)O)cc3)nc2)cc1` [Compound 97], 800 to 2500 nM.
With `CCCCCCCOc1ccc(-c2cnc(-c3ccc(C[C@H](NC(=O)c4ccc(C#N)cc4)C(=O)O)cc3)nc2)cc1` [Compound 98], the EC50 was in the range of 800 to 2500 nM.
Regarding `CCCCCCCOc1ccc(-c2cnc(-c3ccc(C[C@H](NC(=O)c4ccc(S(C)(=O)=O)cc4)C(=O)O)cc3)nc2)cc1` [Compound 99], the EC50 lay within 800 to 2500 nM.
Under `CCCCCCCOc1ccc(-c2cnc(-c3ccc(C[C@H](NC(=O)c4ccc(CC(C)C)cc4)C(=O)O)cc3)nc2)cc1` [Compound 100] stands 800 to 2500 nM; under `CCCCCCCOc1ccc(-c2cnc(-c3ccc(C[C@H](NC(=O)c4ccc(CCC)cc4)C(=O)O)cc3)nc2)cc1` [Compound 101], 800 to 2500 nM.
To `CCCCCCCOc1ccc(-c2cnc(-c3ccc(C[C@H](NC(=O)c4ccc(N)cc4)C(=O)O)cc3)nc2)cc1` [Compound 102] belongs 800 to 2500 nM; to `CCCCCCCOc1ccc(-c2cnc(-c3ccc(C[C@H](NC(=O)c4cccc(N)c4)C(=O)O)cc3)nc2)cc1` [Compound 104], 800 to 2500 nM.
For the compound `CCCCCCCOc1ccc(-c2cnc(-c3ccc(C[C@H](NC(=O)c4cccc(C#N)c4)C(=O)O)cc3)nc2)cc1` [Compound 105], the EC50 is 5000 to 10000 nM.
`CCCCCCCOc1ccc(-c2cnc(-c3ccc(C[C@H](NC(=O)c4ccc(C(C)(C)C)cc4OC)C(=O)O)cc3)nc2)cc1` [Compound 106]: the EC50 lay within 800 to 2500 nM.
To `CCCCCCCOc1ccc(-c2cnc(-c3ccc(C[C@H](NC(=O)c4ccc(CCCC)cc4)C(=O)O)cc3)nc2)cc1` [Compound 107] belongs 800 to 2500 nM.
To `CCCCCCCOc1ccc(-c2cnc(-c3ccc(C[C@H](NC(=O)c4ccc(OCC)cc4)C(=O)O)cc3)nc2)cc1` [Compound 108] belongs 800 to 2500 nM; to `CCCCCCCOc1ccc(-c2cnc(-c3ccc(C[C@H](NC(=O)c4ccc(OC)cc4F)C(=O)O)cc3)nc2)cc1` [Compound 109], 800 to 2500 nM; to `CCCCCCCOc1ccc(-c2cnc(-c3ccc(C[C@H](NC(=O)c4ccc(C)cc4)C(=O)O)cc3)nc2)cc1` [Compound 110], 800 to 2500 nM.
To `CCCCCCCOc1ccc(-c2cnc(-c3ccc(C[C@H](NC(=O)c4cccc(C)c4)C(=O)O)cc3)nc2)cc1` [Compound 111] belongs 800 to 2500 nM; to `CCCCCCCOc1ccc(-c2cnc(-c3ccc(C[C@H](NC(=O)c4ccc(CC(C)(C)C)cc4)C(=O)O)cc3)nc2)cc1` [Compound 112], 800 to 2500 nM; to `CCCCCCCOc1ccc(-c2cnc(-c3ccc(C[C@H](NC(=O)c4ccc(C(C)=O)cc4)C(=O)O)cc3)nc2)cc1` [Compound 113], 800 to 2500 nM.
On to `CCCCCCCOc1ccc(-c2cnc(-c3ccc(C[C@H](NC(=O)c4ccc(O)cc4)C(=O)O)cc3)nc2)cc1` [Compound 114, (S)-3-(4-(5-(4-(heptyloxy)phenyl)pyrimidin-2-yl)phenyl)-2-(4-hydroxybenzamido)propanoic acid], for which the EC50 lay in the range of 800 to 2500 nM.
Consider `CCCCCCCOc1ccc(-c2cnc(-c3ccc(C[C@H](NC(=O)c4ccc(C(N)=O)cc4)C(=O)O)cc3)nc2)cc1` [Compound 115], for which the EC50 is 800 to 2500 nM.
To `CCCCCCCOc1ccc(-c2cnc(-c3ccc(C[C@H](NC(=O)c4c(Cl)ccc(F)c4Cl)C(=O)O)cc3)nc2)cc1` [Compound 116] belongs 800 to 2500 nM; to `CCCCCCCOc1ccc(-c2cnc(-c3ccc(C[C@H](NC(=O)c4ccc(C)c(C)c4)C(=O)O)cc3)nc2)cc1` [Compound 117], < 800 nM; to `CCCCCCCOc1ccc(-c2cnc(-c3ccc(C[C@H](NC(=O)c4ccc(OC)c(C)c4)C(=O)O)cc3)nc2)cc1` [Compound 118], < 800 nM.
To `CCCCCCCOc1ccc(-c2cnc(-c3ccc(C[C@H](NC(=O)c4ccccc4C)C(=O)O)cc3)nc2)cc1` [Compound 119] belongs < 800 nM; to `CCCCCCCOc1ccc(-c2cnc(-c3ccc(C[C@H](NC(=O)c4ccc(OC(F)(F)F)cc4)C(=O)O)cc3)nc2)cc1` [Compound 120], 800 to 2500 nM; to `CCCCCCCOc1ccc(-c2cnc(-c3ccc(C[C@H](NC(=O)c4ccc(OCC(C)C)cc4)C(=O)O)cc3)nc2)cc1` [Compound 121], 800 to 2500 nM.
Under `CCCCCCCOc1ccc(-c2cnc(-c3ccc(C[C@H](NC(=O)c4ccc(S(=O)(=O)C(C)C)cc4)C(=O)O)cc3)nc2)cc1` [Compound 122] stands 800 to 2500 nM.
Take `CCCCCCCOc1ccc(-c2cnc(-c3ccc(C[C@H](NC(=O)c4ccc(S(C)(=O)=O)cc4Cl)C(=O)O)cc3)nc2)cc1` [Compound 123]: the EC50 was in the range of 800 to 2500 nM.
Regarding `CCCCCCCOc1ccc(-c2cnc(-c3ccc(C[C@H](NC(=O)c4ccc(NCCCC)cc4)C(=O)O)cc3)nc2)cc1` [Compound 124], the EC50 was in the range of 800 to 2500 nM.
To `CCCCCCCOc1ccc(-c2cnc(-c3ccc(C[C@H](NC(=O)c4ccc(OC(C)(C)C)cc4)C(=O)O)cc3)nc2)cc1` [Compound 125] belongs 800 to 2500 nM; to `CCCCCCCOc1ccc(-c2cnc(-c3ccc(C[C@H](NC(=O)c4ccc(CO)cc4)C(=O)O)cc3)nc2)cc1` [Compound 126], 800 to 2500 nM; to `CCCCCCCOc1ccc(-c2cnc(-c3ccc(C[C@H](NC(=O)c4ccc(S(=O)(=O)CC)cc4)C(=O)O)cc3)nc2)cc1` [Compound 127], 800 to 2500 nM.
To `CCCCCCCOc1ccc(-c2cnc(-c3ccc(C[C@H](NC(=O)c4ccc(C(=O)N(C)C)cc4)C(=O)O)cc3)nc2)cc1` [Compound 128] belongs 800 to 2500 nM; to `CCCCCCCOc1ccc(-c2cnc(-c3ccc(C[C@H](NC(=O)c4ccc(OCCCC)cc4)C(=O)O)cc3)nc2)cc1` [Compound 129], 800 to 2500 nM; to `CCCCCCCOc1ccc(-c2cnc(-c3ccc(C[C@H](NC(=O)c4cc(C(C)C)no4)C(=O)O)cc3)nc2)cc1` [Compound 130], < 800 nM.
Take `CCCCCCCOc1ccc(-c2cnc(-c3ccc(C[C@H](NC(=O)c4cnc(C(C)C)nc4)C(=O)O)cc3)nc2)cc1` [Compound 131]: the EC50 fell in the range of 800 to 2500 nM.
Under `CCCCCCCOc1ccc(-c2cnc(-c3ccc(C[C@H](NC(=O)c4coc(C(C)C)n4)C(=O)O)cc3)nc2)cc1` [Compound 132] stands 800 to 2500 nM.
Under `CCCCCCCOc1ccc(-c2cnc(-c3ccc(C[C@H](NC(=O)c4ccc(C(C)(C)C)o4)C(=O)O)cc3)nc2)cc1` [Compound 133] stands 800 to 2500 nM; under `CCCCCCCOc1ccc(-c2cnc(-c3ccc(C[C@H](NC(=O)c4ccc(CN(C)C)cc4)C(=O)O)cc3)nc2)cc1` [Compound 134], 800 to 2500 nM; under `CCCCCCCOc1ccc(-c2cnc(-c3ccc(C[C@H](NC(=O)c4cc(C(C)C)on4)C(=O)O)cc3)nc2)cc1` [Compound 135], 800 to 2500 nM.
Under `CCCCCCCOc1ccc(-c2cnc(-c3ccc(C[C@H](NC(=O)c4cc(C(C)(C)C)n[nH]4)C(=O)O)cc3)nc2)cc1` [Compound 136] stands 5000 to 10000 nM.
Take `CCCCCCCOc1ccc(-c2cnc(-c3ccc(C[C@H](NC(=O)c4ccc(CC)s4)C(=O)O)cc3)nc2)cc1` [Compound 137]: the EC50 lay in the range of 800 to 2500 nM.
Under `CCCCCCCOc1ccc(-c2cnc(-c3ccc(C[C@H](NC(=O)c4ccc(CC)o4)C(=O)O)cc3)nc2)cc1` [Compound 138] stands 800 to 2500 nM; under `CCCCCCCOc1ccc(-c2cnc(-c3ccc(C[C@H](NC(=O)c4cnn(C(C)C)c4)C(=O)O)cc3)nc2)cc1` [Compound 139], 800 to 2500 nM; under `CCCCCCCOc1ccc(-c2cnc(-c3ccc(C[C@H](NC(=O)c4ccc(C(F)(F)F)s4)C(=O)O)cc3)nc2)cc1` [Compound 140], 2500 to 5000 nM.
With `CCCCCCCOc1ccc(-c2cnc(-c3ccc(C[C@H](NC(=O)c4nnc(C(C)(C)C)s4)C(=O)O)cc3)nc2)cc1` [Compound 141], the EC50 is 800 to 2500 nM.
Under `CCCCCCCOc1ccc(-c2cnc(-c3ccc(C[C@H](NC(=O)c4ncc(C(C)(C)C)s4)C(=O)O)cc3)nc2)cc1` [Compound 142] stands < 800 nM.

The values are drawn from US8778923B2, “GLP-1 receptor modulators” (Receptos, Inc., priority 2011, dated 2014).
